According to PMC10338423, “Synthesis and preclinical evaluation of a novel fluorine-18 labeled small-molecule PET radiotracer for imaging of CXCR3 receptor in mouse models of atherosclerosis” (EJNMMI Research, 2023):

What was measured:
CXCR3 [1] = molecular target: T1, CXCR3 (Mus musculus, UniProt O88410); assay: PET/CT imaging, baseline and self-blocking, in C57BL/6 control mice on normal diet; assay type: in vivo
T1 construct: tissue Jackson Laboratory (mice); host or cells: In vivo: atherosclerotic abdominal aorta and brown adipose tissue of ApoE KO mice (high-fat diet) and C57BL/6 control mice (normal diet)
T1 sequence (O88410 1-367): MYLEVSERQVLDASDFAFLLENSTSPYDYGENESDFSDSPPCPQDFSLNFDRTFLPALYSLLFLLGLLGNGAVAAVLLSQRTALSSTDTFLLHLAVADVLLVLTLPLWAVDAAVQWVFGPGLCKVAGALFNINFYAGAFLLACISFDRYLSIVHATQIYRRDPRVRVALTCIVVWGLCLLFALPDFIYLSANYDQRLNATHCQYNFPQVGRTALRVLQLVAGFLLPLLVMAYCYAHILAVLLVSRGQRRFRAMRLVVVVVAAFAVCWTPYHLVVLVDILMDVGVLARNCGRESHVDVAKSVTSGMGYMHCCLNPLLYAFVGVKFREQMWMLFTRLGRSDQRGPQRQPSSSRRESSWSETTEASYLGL
From the text: (§1) [^18F]1 was further evaluated for reliability as a CXCR3 radiotracer using mouse models of atherosclerosis. For this purpose, we tested [^18F]1 in ApoE KO mice, a widely used murine model of atherosclerosis. Six-week-old ApoE KO male mice (N = 6) and C57BL/6 male control mice (i.e., a background strain of ApoE KO mouse, ApoE-wildtype control; N = 6) were purchased from Jackson Laboratory (Bar Harbor, ME). The ApoE KO mice were placed on a high-fat diet over 12 weeks to accelerate atherosclerosis development. […] At 12 weeks, PET/computed tomography (CT) studies were performed using both mice groups. Dynamic PET scans (90 min acquisition) were performed beginning 5 min after the intravenous injection of [^18F]1 followed by a ~ 10 min CT scan. Usually, one week after the baseline PET/CT scan, the corresponding blocking PET/CT scan was performed. This time, 1·HCl salt (5 mg/kg) was used as a blocking agent and intravenously injected 5 min before the radiotracer injection.
(§2) All animal studies were performed at the VA Biomolecular Imaging Center (VA BIC) at the Harry S. Truman Memorial Veterans’ Hospital (Columbia, MO). Six-week-old ApoE KO male mice and C57BL/6 control male mice were purchased from Jackson Laboratory. All mice were housed in the controlled vivarium during the studies. All ApoE KO mice were fed with high-fat chow that contained 42% fat, 34% of that contained unsaturated fat (TD.88137, Envigo, Indianapolis, IN), one week after the arrival and continued the feeding until the end of the study. The first PET/CT scans were performed 12 weeks after initiating the high-fat diet, and the second PET/CT scans that used 1·HCl as a blocking agent were performed at least one week after the first PET/CT scans. Meanwhile, C57BL/6 control mice were fed with normal chow over the same schedule to match with ApoE KO mice.
(§3) Maximum intensity micro-PET images were obtained on a Siemens INVEON small-animal PET/CT scanner (Siemens Medical Solutions USA, Inc., Malvern, PA). […] The micro-PET data was analyzed using Siemens Inveon Research Workplace, General Analysis software. […]

CXCR3 [2] = molecular target: T1, CXCR3; assay: PET/CT imaging, baseline and self-blocking, in ApoE KO mice on high-fat diet; assay type: in vivo
From the text: as §1, §2, §3

[3] = 1·HCl 5 mg/kg i.v. 5 min before tracer
[4] = blocking study with 1·HCl 5 mg/kg i.v., stated for both groups

- blocking effect in BAT (from AUC of TACs) (CXCR3 [1]; [3]): 45.9%
- blocking effect in abdominal aorta (from AUC of TACs) (CXCR3 [1]; [3]): 4.7%
- standard uptake value (SUV), BAT region (CXCR3 [1]; [4]): 1.2–1.5
- blocking effect in BAT (from AUC of TACs) (CXCR3 [2]; [3]): 23.4%
- blocking effect in atherosclerotic abdominal aorta (from AUC of TACs) (CXCR3 [2]; [3]): 16.9%
- standard uptake value (SUV), BAT region (CXCR3 [2]; [4]): 1.2–1.5
SMILES: CC[C@H]1CN(c2ncc(-c3nnco3)cc2Cl)CCN1C1CCN(Cc2ccc(Cl)cc2[18F])CC1 [[^18F]1]
